# Results taken from PubChem BioAssay AID1845202 (Molecular Pharmacology Branch, DTP, NCI, 2023).
# pIC50: −log10 of the molar value.
# System: DMS 114 tumor spheroids, viability % test/control
# Assay: Anticancer human tumor DMS 114 cell line growth inhibition;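 also: spheroids exposed to compounds for 7 days before read-out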;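 as to viability, T/C: luminescence used as a proxy for viable cells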
# Conditions: spheroids with HUVEC and MSC; for pIC50: curve of first compound; for viability, T/C: stronger effect = lower value
# Method in brief: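 Complex tumor spheroids combined malignant cells with endothelial cells and mesenchymal stem cells. DNA-damaging drugs and DNA repair inhibitors were tested alone and in combination, at half-log dilutions down from clinical Cmax (top 10 microM if Cmax unknown), 0.25% DMSO final.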
# [1] = second compound 1 µM, first compound 0.00949 µM
# [2] = second compound 1 µM, first compound 0.03 µM
# [3] = second compound 1 µM, first compound 0.0949 µM
# [4] = second compound 1 µM, first compound 0.3 µM
# [5] = second compound 1 µM, first compound 0.949 µM
# [6] = second compound 1 µM, first compound 3 µM
# [7] = second compound 3.16 µM, first compound 0.00949 µM
# [8] = second compound 3.16 µM, first compound 0.03 µM
# [9] = second compound 3.16 µM, first compound 0.0949 µM
# [10] = second compound 3.16 µM, first compound 0.3 µM
# [11] = second compound 3.16 µM, first compound 0.949 µM
# [12] = second compound 3.16 µM, first compound 3 µM
# [13] = second compound 10 µM, first compound 0.00949 µM
# [14] = second compound 10 µM, first compound 0.03 µM
# [15] = second compound 10 µM, first compound 0.0949 µM
# [16] = second compound 10 µM, first compound 0.3 µM
# [17] = second compound 10 µM, first compound 0.949 µM
# [18] = second compound 10 µM, first compound 3 µM
# [19] = second compound 31.6 µM, first compound 0.00949 µM
# [20] = second compound 31.6 µM, first compound 0.03 µM
# [21] = second compound 31.6 µM, first compound 0.0949 µM
# [22] = second compound 31.6 µM, first compound 0.3 µM
# [23] = second compound 31.6 µM, first compound 0.949 µM
# [24] = second compound 31.6 µM, first compound 3 µM
# [25] = second compound 100 µM, first compound 0.00949 µM
# [26] = second compound 100 µM, first compound 0.03 µM
# [27] = second compound 100 µM, first compound 0.0949 µM
# [28] = second compound 100 µM, first compound 0.3 µM
# [29] = second compound 100 µM, first compound 0.949 µM
# [30] = second compound 100 µM, first compound 3 µM
Compound,pIC50 (second compound 1 µM),pIC50 (second compound 3.16 µM),pIC50 (second compound 10 µM),pIC50 (second compound 31.6 µM),pIC50 (second compound 100 µM),"viability, T/C [3]","viability, T/C [4]","viability, T/C [5]","viability, T/C [6]","viability, T/C [9]","viability, T/C [10]","viability, T/C [11]","viability, T/C [12]","viability, T/C [15]","viability, T/C [16]","viability, T/C [17]","viability, T/C [18]","viability, T/C [21]","viability, T/C [22]","viability, T/C [23]",also measured
CNCc1ccc(-c2cc(-c3nc(-c4ccc(S(=O)(=O)C(C)C)cc4)cnc3N)on2)cc1 + Cn1nnc2c(C(N)=O)ncn2c1=O,6.73,6.75,6.76,6.79,7.04,80.9%,28.3%,5.64%,0.18%,77.6%,27%,3.9%,0.24%,72.7%,30.2%,2.75%,0.19%,75.8%,22.4%,2.81%,"viability, T/C [1]: 103%; viability, T/C [2]: 94.4%; viability, T/C [7]: 102%; viability, T/C [8]: 103%; viability, T/C [13]: 101%; viability, T/C [14]: 99.3%; viability, T/C [19]: 114%; viability, T/C [20]: 92%; viability, T/C [24]: 0.23%; viability, T/C [25]: 89.7%; viability, T/C [26]: 83.3%; viability, T/C [27]: 47.4%; viability, T/C [28]: 16.1%; viability, T/C [29]: 2.42%; viability, T/C [30]: 0.69%"
Cc1sc2c(c1C)C(c1ccc(Cl)cc1)=NC(CC(=O)Nc1ccc(O)cc1)c1nnc(C)n1-2 (stereo not given) + Cn1nnc2c(C(N)=O)ncn2c1=O,6.80,6.71,6.77,6.78,6.94,64.5%,29.9%,11.3%,6.69%,81.4%,30.7%,10.7%,6.68%,71.6%,28.1%,10.7%,4.92%,71%,28.6%,9.45%,"viability, T/C [1]: 98.8%; viability, T/C [2]: 101%; viability, T/C [7]: 104%; viability, T/C [8]: 103%; viability, T/C [13]: 102%; viability, T/C [14]: 108%; viability, T/C [19]: 114%; viability, T/C [20]: 100%; viability, T/C [24]: 4.67%; viability, T/C [25]: 93.9%; viability, T/C [26]: 93%; viability, T/C [27]: 55.1%; viability, T/C [28]: 18.9%; viability, T/C [29]: 6.62%; viability, T/C [30]: 2.68%"
Cn1ncnc1[C@H]1c2n[nH]c(=O)c3cc(F)cc(c23)N[C@@H]1c1ccc(F)cc1 + Cn1nnc2c(C(N)=O)ncn2c1=O,6.16,6.19,6.68,> 8.02,> 8.02,98.8%,82.6%,37.9%,11.6%,97.2%,77.2%,36%,14%,65.8%,43.4%,27.1%,16.2%,32.4%,27.6%,20.7%,"viability, T/C [1]: 106%; viability, T/C [2]: 107%; viability, T/C [7]: 112%; viability, T/C [8]: 107%; viability, T/C [13]: 111%; viability, T/C [14]: 82.7%; viability, T/C [19]: 51.5%; viability, T/C [20]: 39.3%; viability, T/C [24]: 10.8%; viability, T/C [25]: 24.1%; viability, T/C [26]: 23.1%; viability, T/C [27]: 22.3%; viability, T/C [28]: 19.4%; viability, T/C [29]: 14.9%; viability, T/C [30]: 9.45%"
O=C(c1cc(Cc2n[nH]c(=O)c3ccccc23)ccc1F)N1CCN(C(=O)C2CC2)CC1 + Cn1nnc2c(C(N)=O)ncn2c1=O,4.70,4.66,4.99,5.58,6.60,106%,99.2%,105%,106%,112%,109%,108%,102%,120%,111%,118%,81.6%,110%,103%,83.7%,"viability, T/C (second compound 1 µM, first compound 9.49 µM): 73.9%; viability, T/C (second compound 1 µM, first compound 30 µM): 37%; viability, T/C (second compound 3.16 µM, first compound 9.49 µM): 68.5%; viability, T/C (second compound 3.16 µM, first compound 30 µM): 43.1%; viability, T/C (second compound 10 µM, first compound 9.49 µM): 54.3%; viability, T/C (second compound 10 µM, first compound 30 µM): 30.1%; viability, T/C [24]: 46.2%; viability, T/C (second compound 31.6 µM, first compound 9.49 µM): 28.1%; viability, T/C (second compound 31.6 µM, first compound 30 µM): 25.8%; viability, T/C [27]: 60.2%; viability, T/C [28]: 48.7%; viability, T/C [29]: 32.9%; viability, T/C [30]: 25.4%; viability, T/C (second compound 100 µM, first compound 9.49 µM): 21.1%; viability, T/C (second compound 100 µM, first compound 30 µM): 19%"
